Test: excess molar enthalpy (molar enthalpy of mixing); xn = mol fraction of the nth substance listed
Conditions: 101 kPa, Crystal, Calvet calorimetry

O=[N+]([O-])[O-].[Rb+] [rubidium nitrate] + O=[N+]([O-])[O-].[Cs+]
excess molar enthalpy [kJ/mol]
Conditions | 298.15 K | 473.15 K
x1 = 0.1 | 0.5 | –
x1 = 0.16 | – | 0.259
x1 = 0.23 | 1.1 | –
x1 = 0.32 | 1.2 | –
x1 = 0.36 | – | 0.554
x1 = 0.5 | 1.4 | 0.582
x1 = 0.57 | 1.4 | –
x1 = 0.65 | 1.3 | –
x1 = 0.68 | 1.2 | –
x1 = 0.73 | – | 0.433
x1 = 0.8 | 0.9 | –
